The subject of one data set is 3T3-L1 pre-adipocytes. Nature of the data set: Potentiation of insulin-stimulated lipogenesis in 3T3-L1 adipocytes. In kind it is cell-based. Particulars: over insulin control = 1. The protocol: 3T3-L1 pre-adipocytes were grown to confluence in 25 ml culture flasks in DMEM (Dulbecco's Modified Eagle's Medium, with 25 mM glucose) containing 10% fetal calf serum (FCS) and antibiotics in a humidified atmosphere of 5% CO2 and 95% air at 37° C. The medium was changed every 2-3 days. The cells were trypsinised at confluency using 0.25% trypsin and transferred to another flask.
For the assay, cells were grown in 24 well plates. Induction of differentiation was done when the cells had grown to confluency with DMEM containing 5% FCS and supplemented with 0.5 mM IBMX (3-Isobutyl-1-methylxanthine), 0.5 μM DEX (dexamethasone) and 1 μg/ml insulin. […] The medium was changed three times, each at an interval of 2 days. On the day of termination of medium changes, lipogenesis assay was performed.
3T3-L1 cells were grown to confluency in 24 well plates. […] On the day of termination of the assay the cells were incubated in […] KRHB (Krebs-Ringer Hepes buffer) for 2 hr at 37° C. in a CO2 incubator. This was replaced with fresh KRHB with 0.1 mM glucose containing 100 nM insulin, test compound or insulin plus test compound. Lipogenesis was initiated by the addition of 20 μl of 50 μCi/ml [^3H]-D-Glucose to each well and incubation for 90 min at 37° C. in a CO2 incubator. The reaction was terminated by aspirating the medium from each well and washing the cells rapidly 3 times with ice-cold PBS (phosphate buffered saline). 500 μl of 0.2 N NaOH was added to lyse the cells. 450 μl was aliquoted into scintillation vials and scintillation cocktail added. The vials were read in Liquid Scintillation Counter. Results are expressed as fold activation of the standard or test compound over the control (Table 2).

Data set [1] concerns isolated rat hepatocytes. Nature of the data set: Inhibition of gluconeogenesis in isolated rat hepatocytes. Particulars: 5 mM fructose. The format is cell-based. Here is the method:
Assay protocol for determination of inhibition of gluconeogenesis by compounds in isolated rat hepatocytes:
Hepatocytes were isolated by collagenase digestion of perfused livers from male Wistar rats fasted overnight according to the method described in J. Cell. Science., 56, 233-244, 1982, the disclosure of which is incorporated by reference for the teaching of the method.
(§1) The assay was done in three groups: basal, control and test. The test compounds were added to the vials at different concentrations. The isolated hepatocytes were added to the vials and they were incubated at 37° C. for 15 min. After 15 min, 5 mM fructose (precursor for gluconeogenesis) was added to the control and test group. Vials were again incubated at 37° C. for one hour with constant shaking (80 cycles/min.). Incubation was terminated by centrifuging the reaction mixture at 3000 rpm for 5 min. The supernatant was used for determination of both glucose and lactate dehydrogenase (LDH) (Table 1).
An active compound would decrease the amount of glucose formed, which is read at 520 nm by glucose oxidase-peroxidase method.

Data set [2] concerns isolated rat hepatocytes. Nature of the data set: LDH leakage from isolated rat hepatocytes. In kind it is cell-based. To be noted: one entry 'No leakage' for all concentrations tested of the compound (up to 100 μM). Here is the method:
as §1
The LDH activity is measured, by the method described in Meth. Enz. Ana. 3, 118-125, 1984, the disclosure of which is incorporated by reference for the teaching of the method, as the amount of pyruvate consumed by continuously monitoring the decrease in absorbance due to oxidation of NADH (Nicotinamide Adenine Dinucleotide-reduced form) at 339 nm.

For another data set, the target named is T1, hPPARα (Homo sapiens, UniProt Q07869).
T1 construct: expressed in transfected cells; host or cells: CV-1 cells
T1 sequence (Q07869 1-468): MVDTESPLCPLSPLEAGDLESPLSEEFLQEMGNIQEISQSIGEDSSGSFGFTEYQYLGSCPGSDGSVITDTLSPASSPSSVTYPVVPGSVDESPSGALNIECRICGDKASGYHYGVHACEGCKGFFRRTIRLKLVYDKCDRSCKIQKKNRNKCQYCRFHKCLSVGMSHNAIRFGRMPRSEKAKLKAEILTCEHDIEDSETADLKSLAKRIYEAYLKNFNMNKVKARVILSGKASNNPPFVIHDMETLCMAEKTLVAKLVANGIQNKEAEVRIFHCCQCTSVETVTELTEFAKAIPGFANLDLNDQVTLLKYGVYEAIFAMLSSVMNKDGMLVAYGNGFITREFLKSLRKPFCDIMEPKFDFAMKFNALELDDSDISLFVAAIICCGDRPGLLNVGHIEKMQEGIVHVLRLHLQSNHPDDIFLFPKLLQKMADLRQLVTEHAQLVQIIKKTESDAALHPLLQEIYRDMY
Nature of the data set: hPPARα transactivation in cell-based assay (CV-1 cells, luciferase). The protocol:
(§2) Cell based transcription assay was employed to identify hPPAR γ/α agonists. CV-1 cells were maintained in MEM (minimum essential medium) containing 10% FBS (fetal bovine serum). Cells were seeded at a density of 80,000 cells/well in a 24-well plate one day prior to transfection. CV-1 cells were transiently transfected with hPPAR γ/α using Lipofectamine 2000. […] Receptor activation by ligands leads to activation of luciferase expression, which was measured after 15-16 h incubation. The cells were washed with PBS, lysed, and luciferase activity measured in a microplate luminometer. […] Both compounds were synthesized in-house. Maximum activation with the reference agonists was defined as 100%. Receptor activation by test compounds is presented as percentage of maximum activation caused by the respective reference agonists in Table 4(a), Table 4(b) and Table 4(c).

The target of another data set is T2, hPPARγ (Homo sapiens, UniProt P37231).
T2 construct: expressed in transfected cells; host or cells: CV-1 cells
T2 sequence (P37231 1-505): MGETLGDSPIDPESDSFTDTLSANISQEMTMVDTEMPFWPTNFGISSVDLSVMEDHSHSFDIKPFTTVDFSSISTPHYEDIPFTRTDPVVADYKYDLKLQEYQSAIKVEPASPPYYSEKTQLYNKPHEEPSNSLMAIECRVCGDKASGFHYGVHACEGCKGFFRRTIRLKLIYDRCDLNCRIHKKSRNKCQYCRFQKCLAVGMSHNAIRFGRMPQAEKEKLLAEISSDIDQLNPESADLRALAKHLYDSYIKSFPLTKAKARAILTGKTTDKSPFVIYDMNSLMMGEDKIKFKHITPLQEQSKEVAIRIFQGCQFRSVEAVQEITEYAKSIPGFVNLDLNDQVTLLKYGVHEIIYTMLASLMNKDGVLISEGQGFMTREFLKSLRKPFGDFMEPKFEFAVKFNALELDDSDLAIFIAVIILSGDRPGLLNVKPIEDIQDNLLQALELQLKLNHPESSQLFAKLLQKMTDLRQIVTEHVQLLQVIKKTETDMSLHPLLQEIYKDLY
Nature of the data set: hPPARγ transactivation in cell-based assay (CV-1 cells, luciferase). The arrangement: Emax: dose or concentration left out as unconfirmed. To be noted: for PPARγ (Fold activation at 1 μM): CV-1 cells transfected with hPPARγ. Here is the method:
as §2

The test system of data set [3] is STZ induced diabetic rats. Nature of the data set: Streptozotocin-induced diabetes in rats, blood glucose. Particulars: for Percent reduction in blood glucose: STZ diabetic rats. In kind it is in vivo, male Wistar rats. Here is the method:
Diabetes was induced in male Wistar rats by intraperitoneal (i.p.) injection of streptozotocin (STZ) (60 mg/kg) dissolved in 0.05 M citrate buffer, pH 4.6. Plasma glucose levels were estimated 48 hours after STZ administration. […] The rats were divided into […] (n=8 in each group): the first (control) group consisted of untreated animals, the second group had diabetic animals and the third and fourth groups consisted of diabetic animals treated with the test compounds (50 and 100 mg/kg respectively). Test compounds were administered p.o. for 8 days to STZ induced diabetic rats (180-200 g). Blood glucose was measured on day 0, 3 and 8 (Table 3).

[4] abbreviates: Rattus norvegicus, Hepatocyte, 100 μM, read-out: Gluconeogenesis (glucose production) % inhibition.
The mark [5] stands for this setting: CV-1, read-out: PPARγ activation as percentage of maximum activation by rosiglitazone.

Molecules are shown by their SMILES.

The molecule `O=C1NC(=O)C(Cc2ccc3c(c2)CN(c2ccccn2)CCO3)S1` (stereo not shown) [Compound of Example 4, 5-(4-Pyridin-2-yl-2,3,4,5-tetrahydro-benzo[f][1,4]oxazepin-7-yl-methyl)-thiazolidine-2,4-dione] yielded a melting point of 180 to 181 °C. Moreover, the “Fold stimulation of insulin-stimulated lipogenesis” value (“Fold stimulation” for short) with 3T3-L1 pre-adipocytes (10 μM with insulin) turned out to be 2 fold. In addition, the “Fold stimulation” value in the data set on 3T3-L1 pre-adipocytes (100 μM with insulin) worked out at 2.3 fold. Moreover, the inhibition at 10 µM in the data set on isolated rat hepatocytes [1] (Rattus norvegicus, Hepatocyte, 10 μM, read-out: Gluconeogenesis (glucose production) % inhibition) was found to be 27%. Besides, the inhibition at 50 µM in the data set with isolated rat hepatocytes [1] (Rattus norvegicus, Hepatocyte, 50 μM, read-out: Gluconeogenesis (glucose production) % inhibition) is 35%. The inhibition at 100 µM with isolated rat hepatocytes [1] (setting [4]) turned out to be 57%. In the data set with isolated rat hepatocytes [2], the LDH % leakage entry is “No”.
Take `O=C1NC(=O)C(Cc2ccc3c(c2)CN(c2nc4ccccc4o2)CCO3)S1` (stereo not shown) [Compound of Example 7, 5-(4-Benzooxazol-2-yl-2,3,4,5-tetrahydro-benzo[f][1,4]oxazepin-7-yl-methyl)-thiazolidine-2,4-dione]: on hPPARα (20 μM, CV-1 cells transfected with hPPARα), the “PPARα (Fold activation at 20 μM)” value worked out at 1.5 fold. On hPPARα (CV-1, read-out: PPARα activation as percentage of maximum activation by Wy-14643), the Emax at 20 µM came out at 47%. Also, the inhibition at 3 µM in the data set with isolated rat hepatocytes [1] (Rattus norvegicus, Hepatocyte, 3 μM, read-out: Gluconeogenesis (glucose production) % inhibition) is 12%. Also, the inhibition at 30 µM in the data set on isolated rat hepatocytes [1] (Rattus norvegicus, Hepatocyte, 30 μM, read-out: Gluconeogenesis (glucose production) % inhibition) amounted to 19%. Besides, in the data set on isolated rat hepatocytes [1] (setting [4]), the inhibition at 100 µM was determined as 50%. Also, on hPPARγ, the “PPARγ (Fold activation at 1 μM)” value is 0.7 fold. Besides, the Emax at 1 µM on hPPARγ (setting [5]) worked out at 9%. Further, the LDH % leakage entry with isolated rat hepatocytes [2] was “No”.
Regarding `O=C(O)/C=C\C(=O)O.O=C1NC(=O)C(Cc2ccc3c(c2)CN(c2ccccn2)CCO3)S1` (stereo not shown) [Compound of Example 5, 5-(4-Pyridine-2-yl-2,3,4,5-tetrahydro-benzo[f][1,4]oxazepin-7-ylmethyl)-thiazolidine-2,4-dione maleate], on hPPARγ, the “PPARγ (Fold activation at 1 μM)” value was 1.8 fold. Also, the Emax at hPPARγ (setting [5]) was 12%. Further, the “Percent reduction in blood glucose” value turned out to be 28% in data set [3] (50 mpk p.o. for 8 days) and 31% in data set [3] (100 mpk p.o. for 8 days). Besides, the Blood glucose turned out to be 16.8 ± 0.9 μmols/ml in data set [3] (50 mpk p.o., Day 0, STZ diabetic rats); 15.9 ± 3.0 μmols/ml in data set [3] (50 mpk p.o., Day 3, STZ diabetic rats); 14.1 ± 1.99 μmols/ml in data set [3] (50 mpk p.o., Day 8, STZ diabetic rats); 17.0 ± 2.0 μmols/ml in data set [3] (100 mpk p.o., Day 0, STZ diabetic rats); 16.0 ± 1.09 μmols/ml in data set [3] (100 mpk p.o., Day 3, STZ diabetic rats); 13.0 ± 0.9 μmols/ml in data set [3] (100 mpk p.o., Day 8, STZ diabetic rats).
In turn, `O=C(O)/C=C\C(=O)O.O=C1NC(=O)C(=Cc2ccc3c(c2)CN(c2ccccn2)CCO3)S1` [Compound of Example 8, 5-(4-Pyridin-2-yl-2,3,4,5-tetrahydro-benzo[f][1,4]oxazepin-7-ylmethylene)-thiazolidine-2,4-dione maleate] displayed a melting point of 224 to 226 °C. Besides, the “Fold stimulation” value in the data set on 3T3-L1 pre-adipocytes (with insulin, concentration not given) was found to be 1.8 fold. Moreover, in the data set on isolated rat hepatocytes [1] (10 μM), the “Gluconeogenesis (glucose production) % inhibition” value worked out at 9%. Further, the “Gluconeogenesis (glucose production) % inhibition” value with isolated rat hepatocytes [1] (50 μM) came out at 13%. Also, the “Gluconeogenesis (glucose production) % inhibition” value in the data set on isolated rat hepatocytes [1] (100 μM) amounted to 45%. In addition, in the data set with isolated rat hepatocytes [2], the LDH % leakage entry is given as “No”.
